Experimental data: ChEMBL document CHEMBL1146413, “New polyhalogenated monoterpenes from the sea hare Aplysia punctata” (1997)
Converted amounts (≈) assume the structure as drawn.

How the values were obtained:
Assay type in all cases: functional
Conditions in all cases: read-out: ED50 (the source's name)
[1] = tested on: A549; assay: Cytotoxicity against human A549 cells
[2] = tested on: P388; assay: Cytotoxicity against mouse P388 cells
[3] = tested on: HT-29; assay: Cytotoxicity against human HT-29 cells
[4] = tested on: SK-MEL-28; assay: Cytotoxicity against human SK-MEL-28 cells

SMILES: CC(=O)OCCC(C)C(=O)CC/C(=C/Cl)C(Cl)Cl (configuration not stated)
- EC50 [1]: 1.5 µg/mL (≈ 4.75 µM)
- EC50 [2]: 2.5 µg/mL (≈ 7.92 µM)
- EC50 [3]: 2.5 µg/mL (≈ 7.92 µM)
- EC50 [4]: 1.5 µg/mL (≈ 4.75 µM)

SMILES: CC(=O)OCCC(C)C(=O)CC/C(=C\Cl)C(Cl)Cl (configuration not stated)
- EC50 [1]: 1.5 µg/mL (≈ 4.75 µM)
- EC50 [2]: 2.5 µg/mL (≈ 7.92 µM)
- EC50 [3]: 2.5 µg/mL (≈ 7.92 µM)
- EC50 [4]: 1.5 µg/mL (≈ 4.75 µM)

SMILES: CC(=O)OCC/C(C)=C(Cl)/C=C/C(C)(Cl)CBr (configuration not stated)
- EC50 [1]: 1.5 µg/mL (≈ 4.36 µM)
- EC50 [2]: 2.5 µg/mL (≈ 7.27 µM)
- EC50 [3]: 2.5 µg/mL (≈ 7.27 µM)
- EC50 [4]: 1.5 µg/mL (≈ 4.36 µM)
